In experiment [1] the target is T1, PRMT5 (Homo sapiens, UniProt O14744).
T1 construct: purchased Viva (custom protein)
The experiment can be described thus: PRMT5 biochemical IC50 assay with SAM as cofactor. Particulars: PRMT5, SAM as cofactor; read-out: SAM IC50.

Experiment [2] addresses T1, PRMT5. The experiment in a line: PRMT5 biochemical IC50 assay with MTA as cofactor. The note with it: PRMT5, MTA as cofactor; read-out: MTA IC50.
Experiment [3] has as its target T1, PRMT5. The experiment in a line: PRMT5 biochemical IC50 assay with no cofactor. Particulars: PRMT5, no cofactor; read-out: No Cofactor/rel IC50. From the text: Table 1 indicates IC50 values (μM) against PRMT5 for exemplary compounds in the presence of SAM as cofactor, with no cofactor, and with MTA as cofactor, respectively (columns 4-6). […] Ki values can be calculated from the IC50 values as described in the Examples section. As detailed in the Examples section, for the assay performed in the presence of SAM, IC50=Ki×1.5 (Ki=IC50/1.5).

Experiment [4] relates to HAP1 MTAP-deleted cell line. The experiment can be described thus: Viability assay, MTAP-deleted cell line. Particulars: Homo sapiens, read-out: HAP1 MTAP deleted viability. It counts as cell-based. An excerpt: Table 1 additionally indicates IC50 values in a viability assay for the MTAP-deleted cell line (column 10), indicating the effect of treatment with compound on cell survival.

Where [5] appears, read: HAP1, viability assay, MTAP-deleted cell line.
Setting [6] is: HAP1, viability assay, HAP1 MTAP-deleted.
The mark [7] stands for this setting: HAP1, viability IC50, MTAP-deleted cell line.

In US11999727B2 (Tango Therapeutics, Inc., priority 2020, dated 2024) one finds IC50 data, which are given here for 27 compounds.

Read-outs that look alike come from different tables or passages of the source.

T1 sequence (O14744 whole entry): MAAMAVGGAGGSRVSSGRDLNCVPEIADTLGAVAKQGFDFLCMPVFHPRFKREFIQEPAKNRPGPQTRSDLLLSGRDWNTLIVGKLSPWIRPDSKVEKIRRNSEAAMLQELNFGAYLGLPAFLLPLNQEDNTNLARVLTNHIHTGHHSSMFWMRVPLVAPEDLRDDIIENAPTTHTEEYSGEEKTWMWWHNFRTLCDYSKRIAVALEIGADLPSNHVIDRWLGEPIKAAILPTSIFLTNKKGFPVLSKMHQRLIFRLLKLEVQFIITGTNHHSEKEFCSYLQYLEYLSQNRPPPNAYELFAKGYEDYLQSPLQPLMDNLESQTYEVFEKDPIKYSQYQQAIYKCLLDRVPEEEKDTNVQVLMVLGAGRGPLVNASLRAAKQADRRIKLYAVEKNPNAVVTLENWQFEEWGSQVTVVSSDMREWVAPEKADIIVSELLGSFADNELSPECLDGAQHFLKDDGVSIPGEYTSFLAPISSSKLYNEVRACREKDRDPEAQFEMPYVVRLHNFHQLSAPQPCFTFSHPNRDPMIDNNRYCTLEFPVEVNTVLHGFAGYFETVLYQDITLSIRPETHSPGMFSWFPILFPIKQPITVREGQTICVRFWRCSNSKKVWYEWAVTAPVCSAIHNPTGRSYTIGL
T1 sequence (Q9BQA1 whole entry partner): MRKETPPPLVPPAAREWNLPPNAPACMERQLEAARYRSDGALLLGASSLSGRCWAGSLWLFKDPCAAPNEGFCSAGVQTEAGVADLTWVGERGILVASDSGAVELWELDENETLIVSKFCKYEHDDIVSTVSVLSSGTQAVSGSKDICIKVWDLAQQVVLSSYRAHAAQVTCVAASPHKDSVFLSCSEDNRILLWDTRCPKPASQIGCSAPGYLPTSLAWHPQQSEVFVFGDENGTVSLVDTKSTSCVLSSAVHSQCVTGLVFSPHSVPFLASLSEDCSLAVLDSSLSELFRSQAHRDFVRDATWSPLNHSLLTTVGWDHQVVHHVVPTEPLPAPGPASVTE

As to `CC(=O)N[C@H]1CC[C@H]([C@H]2CC[C@H](C)CN2C(=O)C(=O)Nc2cnc(N)c(C)c2)CC1` (single isomer, unassigned) [Compound 296], the IC50 in experiment [1] was more than 500 nM; in experiment [2] it was 50 to 500 nM; in experiment [3] it was more than 500 nM; in experiment [4] (setting [5]), more than 10 µM.

Take `Cc1cc(NC(=O)C(=O)N2C[C@H](C)CC[C@H]2C2CCNCC2)cnc1N` (racemic) [Compound 708, N-(6-amino-5-methyl-3-pyridyl)-2-[(2R,5S)-5-methyl-2-(4-piperidyl)-1-piperidyl]-2-oxo-acetamide]: the IC50 was more than 500 nM in experiment [1], more than 500 nM in experiment [2], more than 500 nM in experiment [3] and more than 10 µM in experiment [4] (setting [6]).

With `C[C@H]1CC[C@H](c2ccc3c(c2)CCCN3)N(C(=O)C(=O)Nc2cncc(C(N)=O)c2)C1` (single isomer, unassigned) [Compound 426], the IC50 is more than 500 nM in experiment [1], more than 500 nM in experiment [2], more than 500 nM in experiment [3] and more than 10 µM in experiment [4] (setting [5]).

As to `Cc1cc(NC(=O)C(=O)N2C[C@H](C)CC[C@H]2c2ccc3sc(N)nc3c2)cnc1N` (single isomer, unassigned) [Compound 981], the IC50 in experiment [1] was more than 500 nM; in experiment [2], more than 500 nM; in experiment [3], more than 500 nM; in experiment [4] (setting [5]), more than 10 µM.

For the compound `CCc1cc(NC(=O)C(=O)N2C[C@@H](C)CC[C@@H]2c2ccc3sc(N)nc3c2)cnc1N` (single isomer, unassigned) [Compound 996], the IC50 is 50 to 500 nM in experiment [1], less than 50 nM in experiment [2], less than 50 nM in experiment [3] and less than 1 µM in experiment [4] (setting [5]).

For the compound `CC(=O)NCc1ccc([C@@H]2CC[C@@H](C)CN2C(=O)C(=O)Nc2cnc(N)c(C)c2)cc1` (racemic) [Compound 1036, rac-2-[(2R,5S)-2-[4-(Acetamidomethyl)phenyl]-5-methyl-1-piperidyl]-N-(6-amino-5-methyl-3-pyridyl)-2-oxo-acetamide], the IC50 in experiment [1] lay in the range of 50 to 500 nM; in experiment [2] it was 50 to 500 nM; in experiment [3] it was 50 to 500 nM; in experiment [4] (setting [5]), 1 to 10 µM.

Consider `Cc1cc(NC(=O)C(=O)N2C[C@H](C)CC[C@H]2c2cc(F)cc(F)c2)cnc1N` (single isomer, unassigned) [Compound 712, N-(6-amino-5-methylpyridin-3-yl)-2-(2-(3,5-difluorophenyl)-5-methylpiperidin-1-yl)-2-oxoacetamide], for which the IC50 in experiment [1] was more than 500 nM; in experiment [2], more than 500 nM; in experiment [3], more than 500 nM; in experiment [4] (setting [6]) it was more than 10 µM.

For `NC(=O)c1cncc(NC(=O)C(=O)N2CCC3C(CCCN3Cc3ccccc3)C2)c1` (stereo not drawn) [Compound 412, 5-[2-(1-Benzyl-decahydro-1,6-naphthyridin-6-yl)-2-oxoacetamido]pyridine-3-carboxamide], the IC50 in experiment [1] was 50 to 500 nM; in experiment [2] it was 50 to 500 nM; in experiment [3] it was more than 500 nM; in experiment [4] (setting [5]), more than 10 µM.

For `Cc1cc(NC(=O)C(=O)N2C[C@@H](C)CC[C@@H]2[C@H]2CC[C@H](O)CC2)cnc1N` (single isomer, unassigned) [Compound 434], the IC50 was more than 500 nM in experiment [1], more than 500 nM in experiment [2], more than 500 nM in experiment [3] and more than 10 µM in experiment [4] (setting [5]).

Regarding `Cc1cc(NC(=O)C(=O)N2C[C@H](C)CC[C@H]2c2cc(Cl)cc(C(F)(F)F)c2)cnc1N` (single isomer, unassigned) [Compound 679], the IC50 in experiment [1] was more than 500 nM; in experiment [2], 50 to 500 nM; in experiment [3], more than 500 nM; in experiment [4] (setting [7]), more than 10 µM.

Take `Cc1cc(NC(=O)C(=O)N2C[C@H](C)CC[C@H]2c2ccc3cc[nH]c(=O)c3c2)cnc1N` (single isomer, unassigned) [Compound 1031]: the IC50 in experiment [1] was less than 50 nM; in experiment [2] it was less than 50 nM; in experiment [3] it was less than 50 nM; in experiment [4] (setting [5]), less than 1 µM.

In the case of `Cc1cc(NC(=O)C(=O)N2C[C@@H](C)C(F)(F)C[C@@H]2c2ccccc2)cnc1N` (single isomer, unassigned) [Compound 713], the IC50 was more than 500 nM in experiment [1], more than 500 nM in experiment [2], more than 500 nM in experiment [3] and more than 10 µM in experiment [4] (setting [6]).

In the case of `COc1ncc(NC(=O)C(=O)N2C[C@@H](C)CC[C@@H]2c2ccc3c(c2)CCC(=O)N3)cc1C(N)=O` (single isomer, unassigned) [Compound 673], the IC50 was more than 500 nM in experiment [1], more than 500 nM in experiment [2], more than 500 nM in experiment [3] and more than 10 µM in experiment [4] (setting [7]).

`Cc1cc(NC(=O)C(=O)N2C[C@H](C)C(F)(F)C[C@H]2c2cccc3[nH]ncc23)cnc1N` (single isomer, unassigned) [Compound 1041]: the IC50 was 50 to 500 nM in experiment [1], less than 50 nM in experiment [2], less than 50 nM in experiment [3] and less than 1 µM in experiment [4] (setting [5]).

As to `C[C@@H]1CCC[C@H](c2ccccc2)N1C(=O)C(=O)Nc1cncc(C(N)=O)c1` (single isomer, unassigned) [Compound 278], the IC50 is more than 500 nM in experiment [1], 50 to 500 nM in experiment [2], more than 500 nM in experiment [3] and more than 10 µM in experiment [4] (setting [5]).

As to `COc1ncc(NC(=O)C(=O)N2C[C@@H](C)CC[C@H]2C2CCCC2)cc1C(N)=O` (single isomer, unassigned) [Compound 295], the IC50 in experiment [1] is more than 500 nM; in experiment [2] it was more than 500 nM; in experiment [3] it was more than 500 nM; in experiment [4] (setting [5]), more than 10 µM.

With `C[C@H]1CC[C@H](c2cc3cn[nH]c3s2)N(C(=O)C(=O)Nc2cncc(C(N)=O)c2)C1` (single isomer, unassigned) [Compound 971, 5-(2-(5-methyl-2-(1H-thieno[2,3-c]pyrazol-5-yl)piperidin-1-yl)-2-oxoacetamido)nicotinamide], the IC50 in experiment [1] was more than 500 nM; in experiment [2] it was more than 500 nM; in experiment [3] it was more than 500 nM; in experiment [4] (setting [5]), more than 10 µM.

For the compound `COc1ncc(NC(=O)C(=O)N2C[C@@H](C)CC[C@@H]2c2ccc3sc(N)nc3c2)cc1C(N)=O` (racemic) [Compound 954, 5-[[2-[(2R,5S)-2-(2-amino-1,3-benzothiazol-5-yl)-5-methyl-1-piperidyl]-2-oxo-acetyl]amino]-2-methoxy-pyridine-3-carboxamide], the IC50 in experiment [1] was 50 to 500 nM; in experiment [2], 50 to 500 nM; in experiment [3], 50 to 500 nM; in experiment [4] (setting [5]), less than 1 µM.

`Cc1cc(NC(=O)C(=O)N2C[C@@H](C)[C@@H](C)C[C@H]2c2ccccc2)cnc1N` (single isomer, unassigned) [Compound 304]: the IC50 is 50 to 500 nM in experiment [1], 50 to 500 nM in experiment [2], 50 to 500 nM in experiment [3] and more than 10 µM in experiment [4] (setting [5]).

In the case of `Cc1cc(NC(=O)C(=O)N2C[C@@H](C)CC[C@@H]2c2cc(F)cc(Cl)c2)cnc1N` (single isomer, unassigned) [Compound 682], the IC50 in experiment [1] was more than 500 nM; in experiment [2] it was 50 to 500 nM; in experiment [3], more than 500 nM; in experiment [4] (setting [7]), more than 10 µM.

For `Cc1cc(NC(=O)C(=O)N2C[C@@H](C)CC[C@@H]2c2ccc3cc[nH]c(=O)c3c2)cnc1N` (single isomer, unassigned) [Compound 1021], the IC50 in experiment [1] was more than 500 nM; in experiment [2], more than 500 nM; in experiment [3], more than 500 nM; in experiment [4] (setting [5]), more than 10 µM.

In the case of `COc1ncc(NC(=O)C(=O)N2C[C@@H](C)CC[C@@H]2c2ccc(NS(C)(=O)=O)nc2)cc1C(N)=O` (single isomer, unassigned) [Compound 999], the IC50 in experiment [1] was more than 500 nM; in experiment [2], more than 500 nM; in experiment [3] it was more than 500 nM; in experiment [4] (setting [5]), more than 10 µM.

With `Cc1cc(NC(=O)C(=O)N2C[C@H](C)CC[C@H]2c2cccc3[nH]ccc23)cnc1N` (single isomer, unassigned) [Compound 1035], the IC50 in experiment [1] is 50 to 500 nM; in experiment [2], less than 50 nM; in experiment [3], 50 to 500 nM; in experiment [4] (setting [5]), less than 1 µM.

For `Cc1ncc(NC(=O)C(=O)N2C[C@@H](C)CC[C@@H]2c2ccc3c(c2)CCC(=O)N3)cc1C(F)(F)F` (single isomer, unassigned) [Compound 698], the IC50 is more than 500 nM in experiment [1], more than 500 nM in experiment [2], more than 500 nM in experiment [3] and more than 10 µM in experiment [4] (setting [7]).

Consider `CCc1cc(NC(=O)C(=O)N2C[C@@H](C)CC[C@@H]2c2ccc3sc(C(F)(F)F)nc3c2)cnc1N` (single isomer, unassigned) [Compound 1022], for which the IC50 in experiment [1] is 50 to 500 nM; in experiment [2], less than 50 nM; in experiment [3], less than 50 nM; in experiment [4] (setting [5]), less than 1 µM.

Turning to `CNc1ccc([C@H]2CC[C@H](C)CN2C(=O)C(=O)Nc2cncc(C(N)=O)c2)cn1` (single isomer, unassigned) [Compound 444], the IC50 was more than 500 nM in experiment [1], more than 500 nM in experiment [2], more than 500 nM in experiment [3] and more than 10 µM in experiment [4] (setting [5]).

With `CCc1cc(NC(=O)C(=O)N2C[C@@H](C)CC[C@@H]2c2ccc(NS(C)(=O)=O)nc2)cnc1N` (single isomer, unassigned) [Compound 983], the IC50 was more than 500 nM in experiment [1], more than 500 nM in experiment [2], more than 500 nM in experiment [3] and more than 10 µM in experiment [4] (setting [5]).
